Molecules are shown by their SMILES.

The target of the first assay is Neuronal acetylcholine receptor; alpha4/beta2 (Rattus norvegicus, UniProt P09483+P12390). Kind of assay: In vitro ability to displace [3H](-)-cytisine binding to whole rat brain membranes at Nicotinic acetylcholine receptor alpha4-beta2. Details: species or system Membrane.
Chain of Neuronal acetylcholine receptor; alpha4/beta2 (P09483 whole entry): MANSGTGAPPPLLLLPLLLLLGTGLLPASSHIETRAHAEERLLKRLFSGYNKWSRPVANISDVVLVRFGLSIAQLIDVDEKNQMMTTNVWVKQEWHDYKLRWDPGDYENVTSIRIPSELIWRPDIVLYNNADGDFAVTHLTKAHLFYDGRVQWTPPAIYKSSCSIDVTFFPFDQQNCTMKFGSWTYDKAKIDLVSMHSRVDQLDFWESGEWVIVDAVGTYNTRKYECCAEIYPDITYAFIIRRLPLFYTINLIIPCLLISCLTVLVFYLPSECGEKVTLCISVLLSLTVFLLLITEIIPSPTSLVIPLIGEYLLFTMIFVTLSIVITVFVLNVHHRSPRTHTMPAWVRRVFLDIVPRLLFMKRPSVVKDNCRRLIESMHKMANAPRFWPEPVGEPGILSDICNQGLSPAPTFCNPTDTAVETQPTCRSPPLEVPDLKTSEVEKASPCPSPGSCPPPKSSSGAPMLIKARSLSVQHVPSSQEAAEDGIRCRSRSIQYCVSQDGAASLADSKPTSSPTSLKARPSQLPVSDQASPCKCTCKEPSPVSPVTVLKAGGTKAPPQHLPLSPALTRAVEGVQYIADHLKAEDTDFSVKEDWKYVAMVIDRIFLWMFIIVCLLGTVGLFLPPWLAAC
Chain of Neuronal acetylcholine receptor; alpha4/beta2 (P12390 whole entry): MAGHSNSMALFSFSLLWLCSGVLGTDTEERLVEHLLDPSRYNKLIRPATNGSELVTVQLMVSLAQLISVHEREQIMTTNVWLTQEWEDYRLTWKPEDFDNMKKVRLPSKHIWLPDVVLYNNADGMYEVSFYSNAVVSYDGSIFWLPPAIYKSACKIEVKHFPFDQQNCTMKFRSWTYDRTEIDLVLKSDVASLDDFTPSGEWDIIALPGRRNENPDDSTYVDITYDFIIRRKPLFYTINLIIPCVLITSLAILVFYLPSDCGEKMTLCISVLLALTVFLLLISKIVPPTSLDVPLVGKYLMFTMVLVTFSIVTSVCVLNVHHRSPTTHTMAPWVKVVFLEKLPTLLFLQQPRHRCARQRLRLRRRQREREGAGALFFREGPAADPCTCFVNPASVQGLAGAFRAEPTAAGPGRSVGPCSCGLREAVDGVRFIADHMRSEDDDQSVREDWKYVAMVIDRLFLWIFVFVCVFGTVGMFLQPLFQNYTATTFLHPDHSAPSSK
For the compound `Cc1ccc(C#Cc2cncc(OC[C@@H]3CCCN3C)c2)cc1`, the affinity corresponds to a Ki of 0.00031 µM.
Same read-out and setting: under `CN1CCC[C@H]1COc1cncc(-c2cncnc2)c1` stands 0.00037 µM; under `CN1CCC[C@H]1COc1cncc(-c2cc3ccccc3o2)c1`, 0.00015 µM; under `CN1CCC[C@H]1COc1cncc(/C=C/c2ccncc2)c1`, 0.00012 µM.

Another assay has as its target Nicotinic acetylcholine receptor alpha3/betaX. Kind of assay: (§1) Antagonistic activity against neuronal nicotinic acetylcholine receptor (alpha3-betaX subunit) in IMR 32 cell line using 100 uM of (-)-nicotine as agonist. The class given is functional, cell-based.
On to `CN1CCC[C@H]1COc1cncc(CCc2ccccc2)c1`, for which the IC50 (in general, the concentration that gives 50% inhibition) was found to be 1.1 µM.
Consider `CN1CCC[C@H]1COc1cncc(-c2ccc(F)c(Cl)c2)c1`, for which the IC50 was 7.3 µM.
In the case of `CN1CCC[C@H]1COc1cncc(CCc2ccncc2)c1`, the IC50 was found to be 6.3 µM.
On the same count and under the same terms, to `Cc1ccc(C#Cc2cncc(OC[C@@H]3CCCN3C)c2)cc1` belongs 1.5 µM; to `Cc1ccc(-c2cncc(OC[C@@H]3CCCN3C)c2)cc1`, 0.8 µM.
Compound `CN1CCC[C@H]1COc1cncc(-c2cccnc2)c1` yielded a half-maximal inhibitory concentration (IC50) of 24.7 µM.
The same measure, in the same setting: to `CN1CCC[C@H]1COc1cncc(-c2cccs2)c1` belongs 1.7 µM.
On the same count and under the same terms, to `CN1CCC[C@H]1COc1cncc(-c2ccco2)c1` belongs 7.9 µM; to `CN1CCC[C@H]1COc1cncc(/C=C/c2ccccc2)c1`, 4.8 µM.
Same read-out and setting: under `CN1CCC[C@H]1COc1cncc(-c2cccc([N+](=O)[O-])c2)c1` stands 2.33 µM; under `CN1CCC[C@H]1COc1cncc(-c2cc(C(F)(F)F)cc(C(F)(F)F)c2)c1`, 2.35 µM; under `CN1CCC[C@H]1COc1cncc(-c2cccc(N)c2)c1`, 6.9 µM.
Compound `CN1CCC[C@H]1COc1cncc(-c2ccccc2C=O)c1` came in with an IC50 of 6.31 µM.
On the same count and under the same terms, under `CN1CCC[C@H]1COc1cncc(-c2ccc3ccccc3c2)c1` stands 3.4 µM; under `CN1CCC[C@H]1COc1cncc(-c2cnc3ccccc3c2)c1`, 5.1 µM; under `CN1CCC[C@H]1COc1cncc(-c2cc3ccccc3o2)c1`, 2.9 µM.
Still for that read-out and setting: to `Cc1ccccc1-c1cncc(OC[C@@H]2CCCN2C)c1` belongs 1.25 µM; to `CN1CCC[C@H]1COc1cncc(-c2ccc(C(F)(F)F)cc2)c1`, 5.71 µM; to `CN1CCC[C@H]1COc1cncc(C#Cc2ccccc2)c1`, 0.79 µM.
Same read-out and setting: to `CN1CCC[C@H]1COc1cncc(-c2ccc(Cl)cc2)c1` belongs 1.99 µM.
For the compound `CN1CCC[C@H]1COc1cncc(-c2ccc(Cl)cc2Cl)c1`, the IC50 was determined as 0.89 µM.
As to `CN1CCC[C@H]1COc1cncc(-c2ccccc2)c1`, the IC50 was determined as 5.1 µM. Compared with the last compound, the IC50 is about 5.7-fold higher.
Regarding `CN1CCC[C@H]1COc1cncc(/C=C/c2ccncc2)c1`, the half-inhibitory concentration (IC50) is 7.6 µM.
Still for that read-out and setting: to `CN1CCC[C@H]1COc1cncc(-c2ccc(F)cc2)c1` belongs 6.48 µM; to `CN1CCC[C@H]1COc1cncc(-c2cc3ccccc3n2C)c1`, 6.1 µM; to `CN1CCC[C@H]1COc1cncc(-c2cccc3ccccc23)c1`, 0.69 µM.
In turn, `COc1ccc(-c2cncc(OC[C@@H]3CCCN3C)c2)cc1` yielded an IC50 of 6.97 µM.

A further assay addresses Nicotinic acetylcholine receptor alpha3/betaX (Homo sapiens) (UniProt P11230+P17787+P30926+P32297+Q05901). Kind of assay: Antagonistic activity against Nicotinic acetylcholine receptor (alpha3-betaX subunit) in IMR 32 cell line using 100 uM of (-)-nicotine as agonist. Type of assay: functional, cell-based.
As to `CN1CCC[C@H]1COc1cncc(-c2cncnc2)c1`, the Max efficacy came out at 38.9%.

For the next assay, the target named is Nicotinic acetylcholine receptor alpha3/betaX. The description is as §1. The class given is functional, cell-based, Homo sapiens.
As to `CN1CCC[C@H]1COc1cncc(-c2cncnc2)c1`, it took 32.4 µM to reach a half-maximal effect (EC50).

Values taken from ChEMBL document CHEMBL1134749, “Synthesis and structure-activity relationships of 5-substituted pyridine analogues of 3” (Bioorg Med Chem Lett, 2001).
